Results as given in PubChem BioAssay (NCI).
“And” between values parts separate entries of the source, which are not always exact repeats. Identical values can stand only once.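 Protocol summary: plate cells (96-well), add compound at 5 concentrations, incubate 48 h, interpolate endpoints linearly. GI50 = concentration required for 50% inhibition of growth. TGI: total growth inhibition.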

How the values were obtained:
Experiment in all cases: growth of human tumour cells (NCI), 48 h
OVCAR-4 ovarian = system: OVCAR-4 ovarian
HL-60(TB) leukemia = system: HL-60(TB) leukemia
OVCAR-8 ovarian = system: OVCAR-8 ovarian
IGROV1 ovarian = system: IGROV1 ovarian
NCI-H226 lung = system: NCI-H226 lung
SW-620 colon = system: SW-620 colon
SN12C renal = system: SN12C renal
K-562 leukemia = system: K-562 leukemia
LOX IMVI melanoma = system: LOX IMVI melanoma
SF-539 CNS = system: SF-539 CNS
MOLT-4 leukemia = system: MOLT-4 leukemia
HOP-92 NSCLC = system: HOP-92 NSCLC
HCC-2998 colon = system: HCC-2998 colon
HT29 colon = system: HT29 colon
SNB-75 CNS = system: SNB-75 CNS
NCI/ADR-RES ovarian = system: NCI/ADR-RES ovarian
U251 CNS = system: U251 CNS

Row | SMILES | TGI (OVCAR-4 ovarian) [µM] | TGI (HL-60(TB) leukemia) [µM] | TGI (OVCAR-8 ovarian) [µM] | TGI (IGROV1 ovarian) [µM] | TGI (NCI-H226 lung) [µM] | TGI (SW-620 colon) [µM] | TGI (SN12C renal) [µM] | TGI (K-562 leukemia) [µM] | TGI (LOX IMVI melanoma) [µM] | TGI (SF-539 CNS) [µM] | TGI (MOLT-4 leukemia) [µM] | TGI (HOP-92 NSCLC) [µM] | TGI (HCC-2998 colon) | TGI (HT29 colon) [µM] | TGI (SNB-75 CNS) | TGI (NCI/ADR-RES ovarian) [µM] | TGI (U251 CNS) | GI50 (OVCAR-4 ovarian) [µM] | GI50 (NCI-H226 lung) [µM] | GI50 (NCI/ADR-RES ovarian) [µM]
1 | CC1=NN(C(=O)c2ccc(C)cc2)C(=O)C1N=Nc1ccccc1C(=O)O (stereo not drawn) | > 100 | > 100 | > 100 | > 100 | > 100 | > 100 | > 100 | > 100 | > 100 | > 100 | > 100 | > 100 | > 100 µM | > 100 | 98.9 µM | > 100 | > 100 µM | – | – | –
2 | CC1CCN(c2cc(-c3cc4ccccc4o3)oc(=O)c2C#N)CC1 | > 100 | > 100 | > 100 | > 100 | > 100 | > 100 | > 100 | > 100 | > 100 | > 100 | > 100 | 79 | > 100 µM | > 100 | > 100 µM | – | > 100 µM | – | – | –
3 | O=C(/C=C\c1ccc(/C=C/C(=O)Nc2cccc(C3=NCCCN3)c2)cc1)Nc1cccc(C2=NCCCN2)c1 | > 100 | > 100 | > 100 | > 100 | – | > 100 | > 100 | > 100 | > 100 | > 100 | > 100 | > 100 | > 100 µM | > 100 | > 100 µM | > 100 | > 100 µM | – | – | –
4 | CO/C(=N\N=C(/c1ccccc1)C(F)(F)F)c1ccncc1 | > 100 | > 100 | > 100 | > 100 | 77.4 | – | > 100 | > 100 | – | – | > 100 | > 100 | – | > 100 | > 100 µM | 71.6 | > 100 µM | – | – | –
5 | c1csc(C(NC2=NCCO2)C2CC2)c1 (stereo not drawn) | > 100 | – | > 100 | > 100 | > 100 | > 100 | > 100 | – | > 100 | > 100 | > 100 | > 100 | > 100 µM | > 100 | > 100 µM | – | > 100 µM | – | – | –
6 | Clc1ccc(-c2nnc(-c3nsc4ccccc34)o2)cc1 | 34.5 | – | > 100 | > 100 | – | > 100 | > 100 | – | > 100 | 48.9 | – | 46.2 | 93.7 µM | > 100 | 24.6 µM | – | 33.5 µM | – | – | –
7 | Clc1cccc(C2SCc3nc4ccccc4n32)c1 (stereo not drawn) | > 100 | 31.6 | 65.1 | 70 | 33.7 | > 100 | 28.6 | > 100 | 30.8 | 48.2 | > 100 | 30.4 | – | 67.2 | 21.3 µM | – | 33 µM | – | – | –
8 | Fc1ccc(C(OCCN2CC3CC2CN3)c2ccc(F)cc2)cc1 (stereo not drawn) | > 100 | > 100 | > 100 | > 100 | > 100 | > 100 | – | > 100 | > 100 | > 100 | > 100 | > 100 | 30.4 µM | – | > 100 µM | > 100 | > 100 µM | – | – | –
9 | CC(=O)Nc1cc(/C=C\C(=O)N2CC(CCl)c3c2cc(N)c2ccccc32)n(C)n1 (stereo not drawn) | – | 0.0126 | – | > 100 | – | > 100 | – | 0.0203 | – | 0.0214 | 0.0357 | > 100 | 0.0733 µM and 0.0826 µM | – | 0.0141 µM and 0.0459 µM | – | 1.23 µM and 3.23 µM | 0.0216 | 0.0173 | 0.103
10 | N/C(=N\N=C/c1cc([N+](=O)[O-])cc([N+](=O)[O-])c1O)NO | > 100 | > 55 | > 100 | > 100 | > 100 | > 100 | > 100 | > 91.2 | > 100 | > 100 | > 100 | > 100 | > 100 µM | > 100 | > 80.9 µM | > 100 | > 100 µM | – | – | –
